From publication PMC10746543, “Design principles for cyclin K molecular glue degraders” (Nature Chemical Biology, 2023)
Several values for one entry are separate records, joined by “and”; a condition that tells them apart may be missing. Equal values may be shown once. Read-outs that look alike come from different tables or passages of the source.

What was measured:
CDK12–cyclin K and DDB1 = target: T1, CDK12–cyclin K and DDB1 (Homo sapiens, UniProt Q16531+Q9NYV4, K965R); experiment: TR-FRET ternary complex formation assay (compound titration); assay type: binding
T1 construct: His6–CDK12 (a.a. 713–1,052); full-length or beta-propeller B domain deletion (ΔBPB: a.a. 396–705 deleted) constructs of His6–DDB1ΔBPB, StrepII–Avi–DDB1, or His6–Spy–DDB1; made in house; host or cells: Trichoplusia ni High Five insect cells (baculovirus)
Outline: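 A time delay of 70 μs preceded acquisition, limiting background fluorescence; the ratio of emission at 520 versus 490 nm gave the TR-FRET value.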

CDK12–cyclin K = CDK12–cyclin K (Homo sapiens, UniProt Q9NYV4); experiment: Lanthascreen kinase binding assay, CDK12; settings: for Lanthascreen raw signal, sheet CDK12: duplicates
Experimental: Lanthascreen experiments were performed using commercially available reagents (Thermo Fisher) and according to the manufacturer’s instructions.

Sequence of CDK12–cyclin K (Q9NYV4 713-1052): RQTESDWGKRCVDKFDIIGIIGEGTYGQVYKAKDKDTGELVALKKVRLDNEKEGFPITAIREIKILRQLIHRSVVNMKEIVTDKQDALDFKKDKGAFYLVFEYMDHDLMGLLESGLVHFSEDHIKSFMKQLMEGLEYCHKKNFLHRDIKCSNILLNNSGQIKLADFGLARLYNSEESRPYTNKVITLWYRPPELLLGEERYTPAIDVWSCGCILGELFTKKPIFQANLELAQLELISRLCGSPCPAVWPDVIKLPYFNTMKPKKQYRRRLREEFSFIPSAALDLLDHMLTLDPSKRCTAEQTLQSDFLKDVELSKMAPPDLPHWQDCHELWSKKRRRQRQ
Sequence of CDK12–cyclin K (O75909 1-267 partner limits assumed): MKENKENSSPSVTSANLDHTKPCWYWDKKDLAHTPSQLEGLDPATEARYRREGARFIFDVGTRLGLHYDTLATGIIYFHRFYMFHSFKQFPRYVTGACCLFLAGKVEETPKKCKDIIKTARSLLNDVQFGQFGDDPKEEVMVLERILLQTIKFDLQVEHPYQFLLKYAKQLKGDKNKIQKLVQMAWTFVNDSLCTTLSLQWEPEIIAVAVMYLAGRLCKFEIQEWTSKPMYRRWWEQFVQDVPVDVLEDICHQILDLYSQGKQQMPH
T1 sequence (Q9NYV4 713-1052 K965R): as the sequence (Q9NYV4 713-1052) above, with K253R counted along it
T1 sequence (O75909 1-267 partner): as the sequence (O75909 1-267 partner limits assumed) above
T1 sequence (Q16531 whole entry): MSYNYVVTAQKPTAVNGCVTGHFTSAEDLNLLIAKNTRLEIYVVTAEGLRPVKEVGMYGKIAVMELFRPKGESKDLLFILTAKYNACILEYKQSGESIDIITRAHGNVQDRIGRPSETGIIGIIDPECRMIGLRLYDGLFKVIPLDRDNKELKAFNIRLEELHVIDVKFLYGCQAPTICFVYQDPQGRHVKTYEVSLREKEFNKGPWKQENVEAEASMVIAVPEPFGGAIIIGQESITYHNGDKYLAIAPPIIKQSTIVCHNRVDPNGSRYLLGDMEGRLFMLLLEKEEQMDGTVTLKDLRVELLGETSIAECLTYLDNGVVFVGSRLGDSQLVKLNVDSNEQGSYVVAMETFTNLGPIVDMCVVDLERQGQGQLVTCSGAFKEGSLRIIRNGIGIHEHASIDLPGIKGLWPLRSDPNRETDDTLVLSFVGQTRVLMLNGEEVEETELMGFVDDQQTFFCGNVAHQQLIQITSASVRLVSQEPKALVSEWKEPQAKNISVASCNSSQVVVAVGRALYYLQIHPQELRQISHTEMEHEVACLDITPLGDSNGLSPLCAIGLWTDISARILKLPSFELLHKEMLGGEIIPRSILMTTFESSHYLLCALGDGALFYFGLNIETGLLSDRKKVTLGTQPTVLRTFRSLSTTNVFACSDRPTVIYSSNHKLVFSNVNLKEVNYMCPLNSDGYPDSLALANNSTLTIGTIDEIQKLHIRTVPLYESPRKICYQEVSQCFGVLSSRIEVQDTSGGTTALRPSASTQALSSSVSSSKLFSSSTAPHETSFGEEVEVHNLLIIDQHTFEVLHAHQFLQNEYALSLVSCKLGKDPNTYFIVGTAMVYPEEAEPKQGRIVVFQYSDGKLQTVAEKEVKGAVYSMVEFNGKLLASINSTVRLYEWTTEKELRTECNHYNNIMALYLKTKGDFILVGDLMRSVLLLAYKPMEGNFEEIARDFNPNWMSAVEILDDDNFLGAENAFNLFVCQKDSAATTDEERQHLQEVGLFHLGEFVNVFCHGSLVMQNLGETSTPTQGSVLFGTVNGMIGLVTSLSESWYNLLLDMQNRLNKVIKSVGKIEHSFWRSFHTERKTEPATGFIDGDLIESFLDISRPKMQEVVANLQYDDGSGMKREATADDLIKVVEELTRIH

## O=C(CSc1nc2ccccc2[nH]1)Nc1ccc(Cl)cn1 [dCeMM3]
CDK12–cyclin K and DDB1; Supplementary Table 2, read-out: TR-FRET EC50 TR-FRET
  EC50: 263 nM
CDK12–cyclin K and DDB1; compound concentration 0.468 nM
  TR-FRET signal: 0.3108 and 0.3043
CDK12–cyclin K and DDB1; compound concentration 2.16 nM
  TR-FRET signal: 0.3247 and 0.3252
CDK12–cyclin K and DDB1; compound concentration 3.6 nM
  TR-FRET signal: 0.3605 and 0.3572
CDK12–cyclin K and DDB1; compound concentration 4.68 nM
  TR-FRET signal: 0.1862 and 0.1908
CDK12–cyclin K and DDB1; compound concentration 7.92001 nM
  TR-FRET signal: 0.4123 and 0.4112
CDK12–cyclin K and DDB1; compound concentration 15.84 nM
  TR-FRET signal: 0.5374 and 0.5369
CDK12–cyclin K and DDB1; compound concentration 21.6 nM
  TR-FRET signal: 0.3061 and 0.3287
CDK12–cyclin K and DDB1; compound concentration 30.96 nM
  TR-FRET signal: 0.7082 and 0.7121
CDK12–cyclin K and DDB1; compound concentration 36 nM
  TR-FRET signal: 0.5639 and 0.6148
CDK12–cyclin K and DDB1; compound concentration 62.6401 nM
  TR-FRET signal: 1.02 and 1.082
CDK12–cyclin K and DDB1; compound concentration 79.2001 nM
  TR-FRET signal: 0.9671 and 1.036
CDK12–cyclin K and DDB1; compound concentration 125.28 nM
  TR-FRET signal: 1.467 and 1.538
CDK12–cyclin K and DDB1; compound concentration 158.4 nM
  TR-FRET signal: 1.482 and 1.527
CDK12–cyclin K and DDB1; compound concentration 244.8 nM
  TR-FRET signal: 2.062 and 2.196
CDK12–cyclin K and DDB1; compound concentration 309.6 nM
  TR-FRET signal: 2.068 and 2.079
CDK12–cyclin K and DDB1; compound concentration 626.401 nM
  TR-FRET signal: 2.602 and 2.623
CDK12–cyclin K and DDB1; compound concentration 993.601 nM
  TR-FRET signal: 3.096 and 3.149
CDK12–cyclin K and DDB1; compound concentration 1252.8 nM
  TR-FRET signal: 3.107 and 3.1711
CDK12–cyclin K and DDB1; compound concentration 2001.6 nM
  TR-FRET signal: 3.3098 and 3.397
CDK12–cyclin K and DDB1; compound concentration 2448 nM
  TR-FRET signal: 3.437 and 3.468
CDK12–cyclin K and DDB1; compound concentration 9936.01 nM
  TR-FRET signal: 3.722 and 3.727
CDK12–cyclin K and DDB1; compound concentration 20016 nM
  TR-FRET signal: 3.796 and 3.749
CDK12–cyclin K and DDB1; in vitro complex formation, 50 nM CDK12–cyclin K, 100 nM DDB1, text and figures, read-out: TR-FRET EC50
  EC50: 263 ± 13 nM
CDK12–cyclin K and DDB1; sheet MOESM7, read-out: log TR-FRET EC50 (converted)
  EC50: 263 nM
CDK12–cyclin K; Supplementary Table 2, read-out: Lanthascreen IC50 [nM] CDK12
  IC50: 2670 nM
CDK12–cyclin K; compound 0.038147 nM, series r13
  Lanthascreen raw signal, sheet CDK12: 0.01104 and 0.01163
CDK12–cyclin K; compound 0.152588 nM, series r13
  Lanthascreen raw signal, sheet CDK12: 0.01112 and 0.01168
CDK12–cyclin K; compound 0.610352 nM, series r13
  Lanthascreen raw signal, sheet CDK12: 0.01247 and 0.01238
CDK12–cyclin K; compound 1.02544 nM, series r1
  Lanthascreen raw signal, sheet CDK12: 0.009603 and 0.009325
CDK12–cyclin K; compound 3.15521 nM, series r1
  Lanthascreen raw signal, sheet CDK12: 0.009514 and 0.008733
CDK12–cyclin K; compound 9.46563 nM, series r1
  Lanthascreen raw signal, sheet CDK12: 0.008364 and 0.009802
CDK12–cyclin K; compound 9.76563 nM, series r13
  Lanthascreen raw signal, sheet CDK12: 0.01196 and 0.01162
CDK12–cyclin K; compound 31.5521 nM, series r1
  Lanthascreen raw signal, sheet CDK12: 0.009806 and 0.008597
CDK12–cyclin K; compound 39.0625 nM, series r13
  Lanthascreen raw signal, sheet CDK12: 0.01144 and 0.01131
CDK12–cyclin K; compound 99.3891 nM, series r1
  Lanthascreen raw signal, sheet CDK12: 0.01036 and 0.01052
CDK12–cyclin K; compound 156.25 nM, series r13
  Lanthascreen raw signal, sheet CDK12: 0.01124 and 0.01129
CDK12–cyclin K; compound 315.521 nM, series r1
  Lanthascreen raw signal, sheet CDK12: 0.008735 and 0.009176
CDK12–cyclin K; compound 625 nM, series r13
  Lanthascreen raw signal, sheet CDK12: 0.01063 and 0.01139
CDK12–cyclin K; compound 2500 nM, series r13
  Lanthascreen raw signal, sheet CDK12: 0.009917 and 0.009154
CDK12–cyclin K; compound 3155.21 nM, series r1
  Lanthascreen raw signal, sheet CDK12: 0.007612 and 0.007481
CDK12–cyclin K; compound 10000 nM, series r13
  Lanthascreen raw signal, sheet CDK12: 0.007835 and 0.008247
CDK12–cyclin K; compound 10002 nM, series r1
  Lanthascreen raw signal, sheet CDK12: 0.006896 and 0.007143
